Assay results from PMC11497264 (Chembiochem, 2024).
Like-named read-outs stand apart in the source and are kept apart here. Bridge positions count the residues as written; N and C are the ends. Peptide text beside a SMILES is read from it.

Columns and labels:
human GRP78 = target: T1, human GRP78 (Homo sapiens, UniProt P11021); test: biochemical; format: binding; conditions: for kon: read-out: Ka1 (association rate constant 1)
T1 construct: The full length human GRP78 protein recombinantly produced in Escherichia coli; 6xHis (inferred from capture on nickel-NTA chip); purchased Abcam (Cambridge, UK); host or cells: Escherichia coli
T1 sequence (P11021 19-654): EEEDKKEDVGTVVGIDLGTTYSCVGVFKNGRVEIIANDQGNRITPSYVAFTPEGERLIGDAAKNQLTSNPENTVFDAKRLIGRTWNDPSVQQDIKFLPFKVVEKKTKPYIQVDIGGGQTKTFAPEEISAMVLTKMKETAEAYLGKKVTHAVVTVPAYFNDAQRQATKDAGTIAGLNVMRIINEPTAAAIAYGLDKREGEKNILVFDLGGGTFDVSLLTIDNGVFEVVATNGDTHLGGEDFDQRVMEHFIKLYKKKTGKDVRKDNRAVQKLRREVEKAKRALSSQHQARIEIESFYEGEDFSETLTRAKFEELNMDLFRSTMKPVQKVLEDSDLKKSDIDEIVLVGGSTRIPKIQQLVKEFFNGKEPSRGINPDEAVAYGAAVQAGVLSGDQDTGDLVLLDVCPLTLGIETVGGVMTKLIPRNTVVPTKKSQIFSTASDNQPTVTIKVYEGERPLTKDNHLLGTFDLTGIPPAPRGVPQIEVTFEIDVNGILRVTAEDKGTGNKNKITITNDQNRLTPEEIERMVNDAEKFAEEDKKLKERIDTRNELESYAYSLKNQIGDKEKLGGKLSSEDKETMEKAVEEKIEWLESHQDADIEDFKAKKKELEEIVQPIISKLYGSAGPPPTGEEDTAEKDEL

GRP78:S1 interaction = target: T2, GRP78:S1 interaction (Homo sapiens, UniProt P11021); test: biochemical; format: binding, human GRP78 / SARS-CoV-2 S1
T2 construct: The full length human GRP78 protein recombinantly produced in Escherichia coli; purchased Abcam (GRP78); Peak Proteins Ltd (S1); host or cells: Escherichia coli (GRP78); HEK293 (S1)
T2 sequence (P11021 19-654): as above

[1] = read-out: Kd1 (dissociation rate constant 1)
[2] = read-out: Kd2 (dissociation rate constant 2)

Structure (SMILES) | Kd (human GRP78; KD (equilibrium dissociation constant)) | Kd (human GRP78; affinity of binding to GRP78) | kon (human GRP78) | koff (human GRP78; [1]) | koff (human GRP78; [2]) | IC50 (GRP78:S1 interaction)
CC(C)[C@@H]1NC(=O)CNC(=O)[C@H](CC(N)=O)NC(=O)[C@@H](N)CSSC[C@@H](C(N)=O)NC(=O)[C@H](CC(N)=O)NC(=O)[C@H](Cc2ccccc2)NC(=O)CNC(=O)[C@H](C)NC1=O [LCP O] (H-CNGVAGFNC-NH2; disulfide 1-9) | 2120 µM | 2000 µM | 140 M⁻¹ s⁻¹ | 0.643 s⁻¹ | 0.00182 s⁻¹ | < 3 µM
CC(C)[C@@H]1NC(=O)CNC(=O)[C@H](CC(N)=O)NC(=O)[C@@H](N)CSSC[C@@H](C(N)=O)NC(=O)[C@H](CC(N)=O)NC(=O)[C@H](Cc2ccccc2)NC(=O)CNC(=O)[C@H](CCC(=O)O)NC1=O [LCP W] (H-CNGVEGFNC-NH2; disulfide 1-9) | – | 200 µM | 1670 M⁻¹ s⁻¹ | 0.43 s⁻¹ | 0.03 s⁻¹ | < 3 µM
